The target of the experiment is cAMP-dependent protein kinase (Homo sapiens, UniProt P17612). Nature of the experiment: phosphorylation of chip-fixed substrate by kinase with [γ-32P]ATP, X-ray film detection. It is filed as biochemical. As to conditions: substrate spotted on aldehyde coated slide glass, 10 units cAMP-dependent protein kinase, reaction one hour, sensitized 12~24 hours. The procedure: First, kemptide (Promega, Madison, Wis.) or malic enzyme-kemptide fusion protein was fixed on a slid glass as a substrate. Particularly, kemptide was dissolved in kemptide solution (10% glycerol, 60% PBS, pH 7.5) at the concentration of 0.1 mg/ml and this substrate solution was integrated on the aldehyde coated slid glass by using a microarrayer [Affymetrix 417 Arrayer (Takara Shuzo, Japan)] with leaving 300 μm distance between spots (2500/1 cm^2). The malic enzyme-kemptide prepared in Example 1 was also integrated on the slid glass with leaving 300 μm distance between spots (2500/1 cm^2). At this time, the size of each spot was 50 μm. The biochip integrated with substrate as described above was fixed in a 30° C. humid chamber for one hour. The biochip prepared in Example 2 was washed three times with washing buffer (2 mM KH2PO4, 1 mM Na2HPO4, 200 mM NaCl, 3 mM KCl, pH 7.5) and then reaction between the substrate and kinase was induced on the chip. Particularly, the chip was washed with kinase buffer (50 mM Tris-HCl, 10 mM MgCl2, pH 7.5) once and then pre-incubation was performed in the kinase buffer supplemented with 100 μM of ATP. […] The reacted biochip was sensitized on X-ray film for 12˜24 hours and then phosphorylation by kinase was measured.

Residues, ends and D or L forms follow the SMILES beside them.

In the case of `CC(C)C[C@H](NC(=O)[C@H](CO)NC(=O)[C@H](C)NC(=O)[C@H](CCCNC(=N)N)NC(=O)[C@H](CCCNC(=N)N)NC(=O)[C@@H](N)CC(C)C)C(=O)NCC(=O)O` [kemptide] (H-LRRASLG-OH), the “phosphorylation by kinase (spot signal on X-ray film)” value is on record as “spot signals were clearly confirmed”.

These data come from US20100029507A1, “THE BIOCHIP FOR THE DETECTION OF PHOSPHORYLATION AND THE DETECTION METHOD USING THE SAME” (priority 2006, published 2010).
